In US20120329709A1, “PRODUCTION OF GLYCOPROTEINS” (priority 2009, published 2012):

Key:
CHO cells [1] = assay: Intracellular sugar-nucleotide levels from CHO cells cultured with Uridine supplementation; type: cell-based, Chinese hamster; design: CMP-NeuAc, average increase in sugar-nucloetide above no supplemented cells / UDP-Gal, average increase in sugar-nucloetide above no supplemented cells / UDP-Glc, average increase in sugar-nucloetide above no supplemented cells / UDP-GlcNAc, average increase in sugar-nucloetide above no supplemented cells / GDP-Man, average increase in sugar-nucloetide above no supplemented cells: unit not given here; conditions: for CMP-NeuAc, average increase in sugar-nucloetide above no supplemented cells / GDP-Fuc, average increase in sugar-nucloetide above no supplemented cells / GDP-Man, average increase in sugar-nucloetide above no supplemented cells / UDP-Gal, average increase in sugar-nucloetide above no supplemented cells / UDP-Glc, average increase in sugar-nucloetide above no supplemented cells / UDP-GlcNAc, average increase in sugar-nucloetide above no supplemented cells: intracellular, CHO cells
Method: (§1) Chinese hamster ovary (CHO) cells were supplemented with the nucleoside uridine. Cells were harvested, and snap frozen, while culture supernatant was harvested and CTLA4Ig harvested by protein A purification for subsequent analysis. Cells were then subjected to nucleotide sugar extraction using standard methods. In short, this was performed with chloroform:methanol:water (2:4:1), the pellets discarded, and the resulting extraction dried down. The dried material was subsequently resuspended in 500 ul of 10% butanol in water and then extracted with 1 ml of 90% butanol in water. The butanol phase was discarded and the acqueous subjected to a second butanol extraction. The final aqueous phase was dried down and the sugar nucleotides further isolated by PGC chromatography eluting off with 25% acetonitrile (v/v) containing 50 mM triethylammonium acetate. For quantification, sugar-nucletides were resolved with RP chromatography.

CHO cells [2] = assay: LC-MS analysis of glycans from CTLA4Ig produced by CHO cells in the presence of elevated uridine; type: cell-based, Chinese hamster; conditions: CTLA4Ig from uridine-supplemented CHO cells, compared to the untreated control
Description: FIG. 1 is a depiction of the levels of glycans from recombinant fusion protein CTLA4-IgG produced in the presence of elevated uridine. Data are expressed as the ratio of the amount of the indicated glycan from control conditions to the amount of the same glycan produced in the presence of elevated uridine. Values are the average +/−SD of duplicate determinants. A value greater than one indicates the species is in greater abundance under the control conditions.
as §1, with “The butanol phase was discarded and the acqueous subjected to a second butanol extraction. The final aqueous phase was dried down and the sugar nucleotides further isolated by PGC chromatography eluting off with 25% acetonitrile (v/v) containing 50 mM triethylammonium acetate.” left out
Protein product was deglycosylated with PNGase F for 18 hours and the resulting glycans isolated with PGC chromatography. […] Resulting MS peak areas were quantified and for each glycan the ratio of the control vs. the uridine treated samples was determined.

## O=c1ccn([C@@H]2O[C@H](CO)[C@@H](O)[C@H]2O)c(=O)[nH]1 [Uridine, uridine]
CHO cells [1]; CHO cells supplemented with uridine
  levels of the uridine sugars including UDP-Gal and UDP-GlcNAc: increased significantly
CHO cells [1]; Uridine 2 x
  CMP-NeuAc, average increase in sugar-nucloetide above no supplemented cells: 32.13
  GDP-Fuc, average increase in sugar-nucloetide above no supplemented cells: 6.5
  GDP-Man, average increase in sugar-nucloetide above no supplemented cells: 6.06
  UDP-Gal, average increase in sugar-nucloetide above no supplemented cells: 168.97
  UDP-Glc, average increase in sugar-nucloetide above no supplemented cells: 409.16
  UDP-GlcNAc, average increase in sugar-nucloetide above no supplemented cells: 402.7
CHO cells [1]; Uridine 10 x
  CMP-NeuAc, average increase in sugar-nucloetide above no supplemented cells: 50.52
  GDP-Fuc, average increase in sugar-nucloetide above no supplemented cells: 8.98
  GDP-Man, average increase in sugar-nucloetide above no supplemented cells: 12.45
  UDP-Gal, average increase in sugar-nucloetide above no supplemented cells: 389.06
  UDP-Glc, average increase in sugar-nucloetide above no supplemented cells: 1261.96
  UDP-GlcNAc, average increase in sugar-nucloetide above no supplemented cells: 2280.49
CHO cells [2]
  level of the monogalactosylated species on the protein product: rises
